Patent publication US20220226270A1, “VERY-LONG-CHAIN POLYUNSATURATED FATTY ACIDS, ELOVANOID HYDROXYLATED DERIVATIVES, AND METHODS OF USE” (Board of Supervisors of Louisiana State University and …, priority 2019, published 2022)

System: Sprague-Dawley rats, middle cerebral artery occlusion (MCAo)
Assay: Experimental ischemic stroke, 2 h middle cerebral artery occlusion (MCAo)
Assay type: in vivo, rat
Details: for reduction of total lesion volume compared to CSF-treated group: T2WI on day 7, 5 μg/50 μl into right lateral ventricle 1 h after 2 h of MCAo; for IgG staining in the cortex / IgG staining intensity compared with the CSF-treated group: at 7 days; for IgG immunoreactivity in cortex, subcortex and whole hemisphere (total): versus the vehicle group (FIG. 22B); for IgG staining intensity compared with the CSF-treated group: ipsilateral hemisphere
Method: Middle cerebral artery occlusion and cannula implantation into the right lateral ventricle: Male Sprague-Dawley rats (Charles River Lab., Wilmington, Mass.) weighing 280-340 g were fasted overnight but allowed free access to water. Atropine sulfate (0.5 mg/kg, i.p.) was injected 10 mins before anesthesia. Anesthesia was induced with 3% isoflurane in a mixture of 70% nitrous oxide and 30% oxygen. All rats were orally intubated and mechanically ventilated. During ventilation, the animals were paralyzed with pancuronium bromide (0.6 mg/kg, i.p.). The catheters were implanted into the right femoral artery and vein for the blood sampling and infusion of drug. Serial analyses of arterial blood gases, plasma glucose, arterial blood pressure and heart beating rate were conducted before and during surgical procedure. Rectal (CMA/150 Temperature Controller, CMA/Microdialysis AB, Stockholm, Sweden) and cranial (temporalis muscle; Omega Engineering, Stamford, Conn.) temperatures were closely monitored before, during and after MCAo. Rectal temperature and body weight were monitored daily until sacrifice.
Rats underwent 2 h of right middle cerebral artery occlusion (MCAo) by an intraluminal-filament. In brief, the right common carotid artery (CCA) bifurcation was exposed through a midline neck incision and the occipital artery branches of the external carotid artery were isolated, ligated and dissected. After careful isolation of the internal carotid artery (ICA), a 3-0 monofilament coated with poly-L-lysine was advanced through the ICA to the MCA until mild resistance was felt. The neck incision was closed with a silk suture and the animals were then allowed to recover. After 2 h of MCAo, rats were re-anesthetized with the same anesthetic combination. Temperature probes were re-inserted, and intraluminal sutures were carefully removed. The animals given free access to food and water for 7 days.
Thirty minutes after suture removal, a brain infusion cannula was implanted into the right lateral ventricle for treatment administration in each rat. Rats were anesthetized with 3% isoflurane and were secured to a stereotaxic apparatus with skull leveled between bregma and lambda. A sterile stainless steel cannula (5-mm long) was implanted into the lateral ventricle using the stereotaxic coordinates (0.2 mm caudal to bregma, 2 mm lateral to midline, and 5 mm below the dura). Cannulas were removed after treatment was completed.
Treatment: Elovanoids (ELV) as sodium salts (Na) or methyl esters (Me) were dissolved in artificial cerebral spinal fluid (CSF) and administered into right lateral ventricle 1 hour after 2 h of MCAo. The following ELVs were used: ELV-N32-Na, ELV-N32-Me, ELV-N34-Na and ELV-N34-Me (5 μg/50 μl) or CSF (50 μl). All treatments were administered by a researcher blinded to the treatment groups.
Neurological/Behavioral Tests: Behavioral tests were performed by an observer blinded to the treatment groups at 60 mins (during MCAo) and then on days 1, 2, 3 and 7 after MCAo. The battery consisted of two tests that have been used previously to evaluate various aspects of neurologic function: (1) the postural reflex test, to examine upper body posture while the animal is suspended by the tail; and (2) the forelimb placing test, to examine sensorimotor integration in forelimb placing responses to visual, tactile and proprioceptive stimuli. Neurological function was graded on a scale of 0-12 (normal score=0, maximal score=12).
Magnetic resonance imaging (MRI) acquisition and analysis of total lesion, core and penumbra volumes: High resolution ex vivo MRI was performed on 4% paraformaldehyde-fixed brains on day 7 using an 11.7T Bruker Advance 8.9 cm horizontal bore instrument equipped with an 89 mm (ID) receiver coil (Bruker Biospin, Billerica, Mass.). T2 weighted images (T2WI), diffusion weighted images (DWI), 3D volumes, and apparent diffusion coefficient (ADC) maps were collected. T2 and ADC maps were computed from T2WI and DWI, respectively. […]

Row | SMILES | reduction of total lesion volume compared to CSF-treated group [%] | IgG staining in the cortex | IgG immunoreactivity in cortex, subcortex and whole hemisphere (total) | IgG staining intensity compared with the CSF-treated group
1 | CC/C=C\C[C@H](O)\C=C/C=C/C=C/[C@H](O)C/C=C\C/C=C\CCCCCCCCCCCCCCC(=O)OC [ELV-N34-Me, methyl (16Z,19Z,22R,23E,25E,27Z,29S,31Z)-22,29-dihydroxytetratriaconta-16,19,23,25,27,31-hexaenoate] | 91 | significantly less IgG staining | significantly reduced | –
2 | CC/C=C\C[C@H](O)\C=C/C=C/C=C/[C@H](O)C/C=C\C/C=C\CCCCCCCCCCCCC(=O)[O-].[Na+] [ELV-N32-Na, sodium (14Z,17Z,20R,21E,23E,25Z,27S,29Z)-20,27-dihydroxydotriaconta-14,17,21,23,25,29-hexaenoate] | 60 | – | – | similar
3 | CC/C=C\C[C@H](O)\C=C/C=C/C=C/[C@H](O)C/C=C\C/C=C\CCCCCCCCCCCCCCC(=O)[O-].[Na+] [ELV-N34-Na, sodium (16Z,19Z,22R,23E,25E,27Z,29S,31Z)-22,29-dihydroxytetratriaconta-16,19,23,25,27,31-hexaenoate] | 99 | significantly less IgG staining | significantly reduced | –
4 | CC/C=C\C[C@H](O)\C=C/C=C/C=C/[C@H](O)C/C=C\C/C=C\CCCCCCCCCCCCC(=O)OC [ELV-N32-Me, methyl (14Z,17Z,20R,21E,23E,25Z,27S,29Z)-20,27-dihydroxydotriaconta-14,17,21,23,25,29-hexaenoate] | 56 | – | – | similar
